From patent US12102633B2, “Spirolactone compounds” (Quixgen, Inc., priority 2017, dated 2024)

Legend:
human ACC2 = target: T1, human ACC2 (Homo sapiens, UniProt O00763); assay: Human ACC enzymatic activity assay (ACC2); type: biochemical; conditions: purified human ACC2; read-out: EA-CoA hACC 2 IC50
T1 construct: purchased BPS Bioscience
Experimental: (§1) Human ACC enzymatic activity assays were performed by using purified human ACC1 and ACC2 proteins (BPS Bioscience). ACC1 and ACC2 proteins were diluted in 24.5 μL reaction buffer (50 mM HEPES pH 7.5, 10 mM MgCl2, 2.0 mM DTT, 4.0 mM ATP, 15 mM ^13C-NaHCO3, 0.75 mg/mL BSA, 0.5 mM sodium citrate), and final concentrations of ACC1 and ACC2 were 0.4 μg/mL and 0.48 μg/mL. For each reaction, 0.5 μL of serial diluted compounds were prepared in DMSO in duplicate or triplicate and mixed with the above 24.5 μL reaction mixtures with ACC proteins at 37° C. for 10 min. Meanwhile, 25 μL of reaction buffer plus acetyl-CoA (final concentration: 5 μM) was prepared freshly and added to the above 25 μL mixture to initiate the reaction. After incubation at 37° C. for 1-2 hours, 100 μl ice-cold 10% TCA with malonyl-^13C3-CoA (final concentration: 40 nM, Sigma-Aldrich) was added to terminate the reaction. For LC-MS/MS analysis, 300 μL quenching buffer (acetonitrile:methanol=1:1, 20 μM carbutamide as internal standard) was added to each tube and mixed well. Samples were then centrifuged at 14,000 rpm for 10 min (Eppendorf) and supernatants were loaded onto LC-MS/MS for quantitation of […] (Gao et al., Journal of chromatography B, Analytical technologies in the biomedical and life sciences 853, 303-313 (2007)).
(§2) Shimadzu LC system was used for sample analysis consisting of system controller (Shimadzu CBM-20A), autosampler (Shimadzu SIL-20A), pump A and B (Shimadzu LC-20AD), column oven (Shimadzu CTO-20A), and analytical column (Phenomenex Gemini 5u C18 11A, 100×2 mm). LC was running at 200 μL/min in the binary gradient mode with mobile phase A (5 mM Ammonium Acetate and 5 mM DMBA in water (1,3-Dimethylbutylamine)) and B (methanol). The samples were analyzed on an AB Sciex QTrap4000 LC-MS/MS triple quadrupole mass spectrometer (Applied Biosystems). Malonyl-CoA and malonyl-13C-CoA were monitored in positive ion mode following MRM transitions at 854.2/347.1 and 855.1/246.1, respectively. The product and internal standard were coeluted to the mass spectrometer in 3 s with 50% H2O, 25% MeCN, 25% acetone, and 5 mM ammonium acetate. Ion chromatograms were integrated using the Analyst 1.5.2 software. Peak area ratios were compared against a standard curve and final cellular concentration of malonyl-CoA or production rate of malonyl-13C-CoA was calculated as pmoles/mg protein per minute.

human ACC1 = target: T2, human ACC1 (Homo sapiens, UniProt Q13085); assay: Human ACC enzymatic activity assay (ACC1); type: biochemical; conditions: purified human ACC1; read-out: EA-CoA hACC 1 IC50
T2 construct: purchased BPS Bioscience
Experimental: as §1, §2

[1] = PK study in male C57 mouse for Examples 14 and 15; type: in vivo; conditions: for concentration at 0.5 h: 0.50 h
Experimental: Pharmacokinetic studies were carried out with male C57 mouse. Compounds (Example 14 and Example 15) were each formulated in 5% DMSO+10% Solutol HS 15+85% Saline, and dosed at 1 mpk for IV injection (5 mL/kg) and 10 mpk for oral gavage (10 mUkg). Plasma samples at various time points were quantitated with LC-MS. Data reported were average of three mice.
Tables 1 and 2 below show plasma concentrations (ng/mL) and PK parameters of Example 14 in male C57 mouse after 1 mpk IV injection and 10 mpk PO gavage, respectively. The plasma concentration (ng/mL) of the acid compound, Example 15, was also measured and reported below.
Tables 3 and 4 below show plasma concentrations (ng/mL) and PK parameters of Example 15 in male C57 mouse after 1 mpk IV injection and 10 mpk PO gavage, respectively.

[2] = male, C57, mouse, plasma, iv, 1 mg/kg, Example 14 dosed 1 mpk IV, analyte = labelled compound
[3] = male, C57, mouse, plasma, iv, 1 mg/kg, Example 15 dosed 1 mpk IV
[4] = male, C57, mouse, plasma, po, 10 mg/kg, Example 14 dosed 10 mpk PO gavage, analyte = labelled compound
[5] = male, C57, mouse, plasma, po, 10 mg/kg, Example 15 dosed 10 mpk PO gavage
[6] = plasma, 1 mg/kg, Example 15 dosed 1 mpk IV

T1 sequence (O00763 whole entry): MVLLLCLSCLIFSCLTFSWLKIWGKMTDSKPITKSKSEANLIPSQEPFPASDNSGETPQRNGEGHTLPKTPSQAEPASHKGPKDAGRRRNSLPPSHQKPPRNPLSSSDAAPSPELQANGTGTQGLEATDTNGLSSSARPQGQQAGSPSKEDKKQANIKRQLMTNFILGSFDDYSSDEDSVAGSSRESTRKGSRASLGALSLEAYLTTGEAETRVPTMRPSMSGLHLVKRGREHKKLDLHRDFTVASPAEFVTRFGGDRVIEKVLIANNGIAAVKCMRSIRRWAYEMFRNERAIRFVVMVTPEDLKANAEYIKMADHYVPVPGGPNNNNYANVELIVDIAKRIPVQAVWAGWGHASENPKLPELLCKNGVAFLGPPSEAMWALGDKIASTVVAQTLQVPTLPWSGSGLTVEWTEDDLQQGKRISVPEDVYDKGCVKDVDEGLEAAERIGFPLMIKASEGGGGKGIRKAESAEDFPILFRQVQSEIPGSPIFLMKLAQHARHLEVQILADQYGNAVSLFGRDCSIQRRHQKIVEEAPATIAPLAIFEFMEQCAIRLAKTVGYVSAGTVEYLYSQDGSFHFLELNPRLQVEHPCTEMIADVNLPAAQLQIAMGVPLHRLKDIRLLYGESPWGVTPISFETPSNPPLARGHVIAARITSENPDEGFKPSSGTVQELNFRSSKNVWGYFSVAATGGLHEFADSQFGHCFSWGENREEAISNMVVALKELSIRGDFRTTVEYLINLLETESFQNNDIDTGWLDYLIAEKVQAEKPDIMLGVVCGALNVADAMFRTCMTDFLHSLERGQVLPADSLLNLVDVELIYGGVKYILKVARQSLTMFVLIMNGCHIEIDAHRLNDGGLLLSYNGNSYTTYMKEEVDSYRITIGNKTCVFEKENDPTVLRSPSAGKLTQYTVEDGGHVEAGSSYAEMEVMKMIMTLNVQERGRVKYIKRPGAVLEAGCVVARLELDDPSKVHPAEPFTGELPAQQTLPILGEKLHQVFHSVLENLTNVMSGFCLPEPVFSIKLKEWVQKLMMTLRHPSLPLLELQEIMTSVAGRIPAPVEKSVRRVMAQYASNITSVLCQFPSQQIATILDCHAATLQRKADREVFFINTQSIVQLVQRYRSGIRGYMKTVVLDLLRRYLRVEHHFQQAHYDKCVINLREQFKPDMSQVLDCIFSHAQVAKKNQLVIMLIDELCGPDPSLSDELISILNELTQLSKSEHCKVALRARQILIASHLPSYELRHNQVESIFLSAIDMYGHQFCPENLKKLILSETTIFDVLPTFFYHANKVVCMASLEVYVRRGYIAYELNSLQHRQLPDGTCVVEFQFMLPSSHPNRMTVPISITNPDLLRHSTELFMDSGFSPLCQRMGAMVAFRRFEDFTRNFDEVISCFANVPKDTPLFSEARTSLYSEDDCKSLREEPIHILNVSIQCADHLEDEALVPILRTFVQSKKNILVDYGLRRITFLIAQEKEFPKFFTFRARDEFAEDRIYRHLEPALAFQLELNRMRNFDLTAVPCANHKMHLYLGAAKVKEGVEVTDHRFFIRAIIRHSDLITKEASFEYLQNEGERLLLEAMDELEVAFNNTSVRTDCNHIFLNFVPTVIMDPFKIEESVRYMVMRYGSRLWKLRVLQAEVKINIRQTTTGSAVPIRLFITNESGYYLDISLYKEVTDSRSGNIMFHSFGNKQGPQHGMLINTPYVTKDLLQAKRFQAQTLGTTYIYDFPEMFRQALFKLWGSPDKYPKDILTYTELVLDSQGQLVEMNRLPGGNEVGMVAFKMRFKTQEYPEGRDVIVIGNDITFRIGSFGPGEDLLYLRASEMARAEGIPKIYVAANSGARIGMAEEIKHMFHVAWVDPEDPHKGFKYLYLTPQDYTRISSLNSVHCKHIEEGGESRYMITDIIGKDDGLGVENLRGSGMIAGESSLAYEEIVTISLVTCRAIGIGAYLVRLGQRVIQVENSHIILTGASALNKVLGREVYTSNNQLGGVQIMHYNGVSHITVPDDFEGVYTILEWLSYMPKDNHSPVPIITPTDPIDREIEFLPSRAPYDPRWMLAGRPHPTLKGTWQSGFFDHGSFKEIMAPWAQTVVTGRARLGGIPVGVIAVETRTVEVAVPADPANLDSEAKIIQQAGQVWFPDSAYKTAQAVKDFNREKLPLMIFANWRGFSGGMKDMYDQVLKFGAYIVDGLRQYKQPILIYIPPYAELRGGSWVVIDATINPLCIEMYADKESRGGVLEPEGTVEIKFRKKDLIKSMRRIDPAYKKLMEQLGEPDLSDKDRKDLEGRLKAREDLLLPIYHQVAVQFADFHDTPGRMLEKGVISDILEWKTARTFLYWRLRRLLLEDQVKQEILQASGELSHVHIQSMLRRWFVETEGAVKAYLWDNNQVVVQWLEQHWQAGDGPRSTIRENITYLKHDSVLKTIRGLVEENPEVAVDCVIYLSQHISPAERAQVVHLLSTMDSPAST

SMILES: COc1cc(C(=O)N2CCC3(CC2)Cc2ccc(-c4cncc(C(=O)O)c4)cc2C(=O)O3)nc2c(OC)cccc12 [Example 15, 5-(1′-(4,8-dimethoxyquinoline-2-carbonyl)-1-oxospiro [isochroman-3,4′-piperidin]-7-yl)nicotinic acid]
- IC50 (human ACC2): 0.033 µM
- IC50 (human ACC1): 0.0275 µM
- Plasma Concentration, Mean ([1]; Example 14 dosed 1 mpk IV, 24.00 h, analyte = labelled compound): BLQ
- Plasma Concentration, Mean ([1]; Example 15 dosed 1 mpk IV, 4.00 h): BLQ
- Plasma Concentration, Mean ([1]; Example 15 dosed 1 mpk IV, 8.00 h): BLQ
- Plasma Concentration, Mean ([1]; Example 15 dosed 1 mpk IV, 24.00 h): BLQ
- F ([1]; Example 15 dosed 10 mpk PO gavage): 1.7%
- Plasma Concentration, Mean ([1]; Example 15 dosed 10 mpk PO gavage, 24.00 h): BLQ
- concentration at 0.08 h [1, 2]: 122 ng/mL
- concentration at 0.25 h [1, 2]: 161 ng/mL
- concentration at 0.5 h [1, 2]: 107 ng/mL
- concentration at 1 h [1, 2]: 55 ng/mL
- concentration at 2 h [1, 2]: 16 ng/mL
- concentration at 4 h ([1]; male, C57, mouse, plasma, iv, 1 mg/kg, Example 14 dosed 1 mpk IV, 4.00 h, analyte = labelled compound): 3.4 ng/mL
- concentration at 8 h ([1]; male, C57, mouse, plasma, iv, 1 mg/kg, Example 14 dosed 1 mpk IV, 8.00 h, analyte = labelled compound): 1.5 ng/mL
- MRT [1, 3]: 6.6 min
- concentration at 0.08 h [1, 3]: 3010 ng/mL
- concentration at 0.25 h [1, 3]: 414 ng/mL
- concentration at 0.5 h [1, 3]: 95 ng/mL
- concentration at 1 h [1, 3]: 28 ng/mL
- concentration at 2 h [1, 3]: 6.6 ng/mL
- concentration at 0.25 h [1, 4]: 152 ng/mL
- concentration at 0.5 h [1, 4]: 168 ng/mL
- concentration at 1 h [1, 4]: 146 ng/mL
- concentration at 2 h [1, 4]: 84 ng/mL
- concentration at 4 h ([1]; male, C57, mouse, plasma, po, 10 mg/kg, Example 14 dosed 10 mpk PO gavage, 4.00 h, analyte = labelled compound): 43 ng/mL
- concentration at 8 h ([1]; male, C57, mouse, plasma, po, 10 mg/kg, Example 14 dosed 10 mpk PO gavage, 8.00 h, analyte = labelled compound): 23 ng/mL
- concentration at 24 h ([1]; male, C57, mouse, plasma, po, 10 mg/kg, Example 14 dosed 10 mpk PO gavage, 24.00 h, analyte = labelled compound): 2.1 ng/mL
- Cmax [1, 4]: 185 ng/mL
- MRT [1, 4]: 186 min
- Tmax [1, 4]: 34.8 min
- Cmax [1, 5]: 164 ng/mL
- MRT [1, 5]: 59.4 min
- Tmax [1, 5]: 15 min
- concentration at 0.25 h [1, 5]: 164 ng/mL
- concentration at 0.5 h [1, 5]: 99 ng/mL
- concentration at 1 h [1, 5]: 63 ng/mL
- concentration at 2 h [1, 5]: 11 ng/mL
- concentration at 4 h ([1]; male, C57, mouse, plasma, po, 10 mg/kg, Example 15 dosed 10 mpk PO gavage, 4.00 h): 3.2 ng/mL
- concentration at 8 h ([1]; male, C57, mouse, plasma, po, 10 mg/kg, Example 15 dosed 10 mpk PO gavage, 8.00 h): 2 ng/mL
- Vd [1, 6]: 0.49 L/kg
- clearance [1, 6]: 23.3 mL/min/kg
- half-life [1, 6]: 17.4 min
